This experiment addresses human GPR43 (Homo sapiens (Human), UniProt O15552). Briefly: Ca-Flux functional assay: determination of agonist/positive allosteric modulator (PAM) activity. Conditions: CHO-K1 Gα16 cells stably expressing human GPR43; compound added with EC20 sodium acetate; intracellular Ca2+ by FLIPR; does not distinguish agonist from PAM. The class given is cell-based. In a few lines:
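CHO-K1 Gα16 cells stably expressing human GPR43, loaded with Calcium 5 dye 1 h; compounds (10-point half-log from 10 μM) added with sodium acetate at EC20. FLIPR calcium signal gave EC50, two wells per point; agonists and PAMs not distinguished.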

Here are results for 26 compounds from patent US10059713B2 (Takeda Pharmaceutical Company Limited, priority 2014, dated 2018).

Sequence of human GPR43 (O15552 whole entry): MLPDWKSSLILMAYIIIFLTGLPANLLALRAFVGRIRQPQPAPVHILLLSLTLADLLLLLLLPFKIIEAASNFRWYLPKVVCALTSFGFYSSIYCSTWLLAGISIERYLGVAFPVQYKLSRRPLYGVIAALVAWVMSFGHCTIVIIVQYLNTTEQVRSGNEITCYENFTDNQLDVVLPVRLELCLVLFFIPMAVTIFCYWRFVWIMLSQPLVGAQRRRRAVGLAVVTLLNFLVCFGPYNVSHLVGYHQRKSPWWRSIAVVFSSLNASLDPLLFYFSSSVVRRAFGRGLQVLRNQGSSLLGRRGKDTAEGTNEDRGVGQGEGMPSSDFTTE

As usually defined, the EC50 is the concentration at which the effect is half-maximal. Higher therefore signals lower potency in that assay. Compound `CN(Cc1cccc(Cl)c1)c1ncnc2c(S(=O)(=O)c3ccccc3)c(N)[nH]c12` [Example 90, 7-(benzenesulfonyl)-4-N-[(3-chlorophenyl)methyl]-4-N-methyl-5H-pyrrolo[3,2-d]pyrimidine-4,6-diamine] had an EC50 of 41 nM.
In the case of `CSc1nc(N2CCOC(C)C2)c2[nH]c(N)c(S(=O)(=O)c3ccccc3)c2n1` (centres unmarked) [Example 238, 7-(benzenesulfonyl)-4-(2-methylmorpholin-4-yl)-2-(methylsulfanyl)-5H-pyrrolo[3,2-d]pyrimidin-6-amine] it was 18 nM; in that of `CN(CC1OCCO1)c1ncnc2c(S(=O)(=O)c3ccccc3)c(N)[nH]c12` [Example 93, 7-(benzenesulfonyl)-4-N-(1,3-dioxolan-2-ylmethyl)-4-N-methyl-5H-pyrrolo[3,2-d]pyrimidine-4,6-diamine], 9510 nM; in that of `Nc1[nH]c2c(N3CCC(F)(F)CC3)ccnc2c1S(=O)(=O)c1ccccc1` [Example 219, 3-(benzenesulfonyl)-7-(4,4-difluoropiperidin-1-yl)-1H-pyrrolo[3,2-b]pyridin-2-amine], 18 nM.
In the case of `Nc1[nH]c2c(C3=CCCCC3)nncc2c1S(=O)(=O)c1ccccc1` [Example 227, 3-(benzenesulfonyl)-7-(cyclohex-1-en-1-yl)-1H-pyrrolo[2,3-d]pyridazin-2-amine] it was 103 nM; in that of `COc1ccc(S(=O)(=O)c2c(N)[nH]c3c(-c4ccccc4)ncnc23)cc1` [Example 76, 7-(4-methoxybenzenesulfonyl)-4-phenyl-5H-pyrrolo[3,2-d]pyrimidin-6-amine], 135 nM; in that of `Cc1nc(OC2CCC(F)(F)CC2)c2[nH]c(N)c(S(=O)(=O)c3ccccc3)c2n1` [Example 254, 7-(benzenesulfonyl)-4-[(4,4-difluorocyclohexyl)oxy]-2-methyl-5H-pyrrolo[3,2-d]pyrimidin-6-amine], 29 nM.
Next, `Cc1nc(N2CCO[C@@H](C(F)(F)F)C2)c2[nH]c(N)c(S(=O)(=O)c3c(F)cccc3F)c2n1` [Example 295, 7-(2,6-difluorobenzenesulfonyl)-2-methyl-4-[(2R)-2-(trifluoromethyl)morpholin-4-yl]-5H-pyrrolo[3,2-d]pyrimidin-6-amine]: 3 nM; `Cc1nc(N2C[C@@H](C)O[C@@H](C)C2)c2[nH]c(N)c(S(=O)(=O)c3ccccc3F)c2n1` [Example 187, 4-[(2R,6S)-2,6-dimethylmorpholin-4-yl]-7-(2-fluorobenzenesulfonyl)-2-methyl-5H-pyrrolo[3,2-d]pyrimidin-6-amine]: 5 nM; `COc1ccc(S(=O)(=O)c2c(N)[nH]c3c(N4CCOC(C)(C)C4)ncnc23)cc1` [Example 129, 4-(2,2-dimethylmorpholin-4-yl)-7-(4-methoxybenzenesulfonyl)-5H-pyrrolo[3,2-d]pyrimidin-6-amine]: 33 nM.
`CC1CCCN(c2ncnc3c(S(=O)(=O)c4ccccc4)c(N)[nH]c23)C1` (centres unmarked) [Example 58, 7-(benzenesulfonyl)-4-(3-methylpiperidin-1-yl)-5H-pyrrolo[3,2-d]pyrimidin-6-amine] returned an EC50 of 17 nM.
In the case of `Cc1nc(N2CCO[C@@H](C)C2)c2[nH]c(N)c(S(=O)(=O)c3ccccc3Cl)c2n1` [Example 261, 7-(2-chlorobenzenesulfonyl)-2-methyl-4-[(2S)-2-methylmorpholin-4-yl]-5H-pyrrolo[3,2-d]pyrimidin-6-amine] it was 14 nM; in that of `Nc1[nH]c2c(OCC3CCCCO3)ncnc2c1S(=O)(=O)c1ccccc1` (centres unmarked) [Example 156, 7-(benzenesulfonyl)-4-(oxan-2-ylmethoxy)-5H-pyrrolo[3,2-d]pyrimidin-6-amine], 3000 nM.
In the case of `Nc1[nH]c2c(C3=CCCCC3)ncnc2c1S(=O)(=O)C1CCOC1` (centres unmarked) [Example 78, 4-(cyclohex-1-en-1-yl)-7-(oxolane-3-sulfonyl)-5H-pyrrolo[3,2-d]pyrimidin-6-amine] it was 2340 nM; in that of `Cc1nc(C2=CCCCC2)c2[nH]c(N)c(S(=O)(=O)c3ccccc3)c2n1` [Example 19, 7-(benzenesulfonyl)-4-(cyclohex-1-en-1-yl)-2-methyl-5H-pyrrolo[3,2-d]pyrimidin-6-amine], 28 nM; in that of `CSc1nc(N2CCOC(C)C2)c2[nH]c(N)c(S(=O)(=O)c3ccccc3F)c2n1` (centres unmarked) [Example 269, 7-(2-fluorobenzenesulfonyl)-4-(2-methylmorpholin-4-yl)-2-(methylsulfanyl)-5H-pyrrolo[3,2-d]pyrimidin-6-amine], 9 nM.
Next, `Cc1nc(N2CCC(F)(F)CC2)c2[nH]c(N)c(S(=O)(=O)c3ccccc3F)c2n1` [Example 186, 4-(4,4-difluoropiperidin-1-yl)-7-(2-fluorobenzenesulfonyl)-2-methyl-5H-pyrrolo[3,2-d]pyrimidin-6-amine]: 14 nM.
`N#CC1CN(c2ncnc3c(S(=O)(=O)c4ccccc4)c(N)[nH]c23)CCO1` (centres unmarked) [Example 216, 4-[6-amino-7-(benzenesulfonyl)-5H-pyrrolo[3,2-d]pyrimidin-4-yl]morpholine-2-carbonitrile] came in with an EC50 of 117 nM.
Next, `Cc1nc(N2CCOC3(CCC3)C2)c2[nH]c(N)c(S(=O)(=O)c3ccccc3F)c2n1` [Example 237, 7-(2-fluorobenzenesulfonyl)-2-methyl-4-{5-oxa-8-azaspiro[3.5]nonan-8-yl}-5H-pyrrolo[3,2-d]pyrimidin-6-amine]: 8 nM; `Cc1cccc(S(=O)(=O)c2c(N)[nH]c3c(N4CCOC(C)C4)ncnc23)c1` (centres unmarked) [Example 121, 7-(3-methylbenzenesulfonyl)-4-(2-methylmorpholin-4-yl)-5H-pyrrolo[3,2-d]pyrimidin-6-amine]: 67 nM; `Nc1[nH]c2c(N3CCCC3)ncnc2c1S(=O)(=O)c1ccccc1` [Example 31, 7-(benzenesulfonyl)-4-(pyrrolidin-1-yl)-5H-pyrrolo[3,2-d]pyrimidin-6-amine]: 720 nM.
`Cc1nc(N2CCO[C@@H](C)C2)c2[nH]c(N)c(S(=O)(=O)c3ccccc3)c2n1` [Example 226, 7-(benzenesulfonyl)-2-methyl-4-[(2S)-2-methylmorpholin-4-yl]-5H-pyrrolo[3,2-d]pyrimidin-6-amine] displayed an EC50 of 13 nM.
Next, `CCN(Cc1ccco1)c1ncnc2c(S(=O)(=O)c3ccccc3)c(N)[nH]c12` [Example 62, 7-(benzenesulfonyl)-4-N-ethyl-4-N-(furan-2-ylmethyl)-5H-pyrrolo[3,2-d]pyrimidine-4,6-diamine]: 91 nM; `Nc1[nH]c2c(OC3CCC(F)(F)CC3)ncnc2c1S(=O)(=O)c1ccccc1` [Example 211, 7-(benzenesulfonyl)-4-[(4,4-difluorocyclohexyl)oxy]-5H-pyrrolo[3,2-d]pyrimidin-6-amine]: 34 nM; `CC(Oc1ncnc2c(S(=O)(=O)c3ccccc3)c(N)[nH]c12)C1CCCC1` (centres unmarked) [Example 212, 7-(benzenesulfonyl)-4-(1-cyclopentylethoxy)-5H-pyrrolo[3,2-d]pyrimidin-6-amine]: 11 nM.
Regarding `COC1CCN(c2ncnc3c(S(=O)(=O)c4ccccc4)c(N)[nH]c23)C1` (centres unmarked) [Example 117, 7-(benzenesulfonyl)-4-(3-methoxypyrrolidin-1-yl)-5H-pyrrolo[3,2-d]pyrimidin-6-amine], the EC50 stood at 3320 nM.
